Legend:
[1] = Fluorescence quantum yield of photosensitizers; format: physicochemical; conditions: in MeOH at 648 nm after 410 nm excitation
Procedure: The UV-visible absorption spectra were recorded on an Uvikon 930 spectrophotometer and fluorescence spectra on a Perkin-Elmer LS50 spectrofluorometer.

RAW macrophages = experiment: Phototoxicity in RAW macrophages, irradiation at 652 nm, MTT test; format: cell-based; conditions: RAW cells, 10 μM, 20 mW/cm^2, MTT 24 h after irradiation
Procedure: RAW cells were grown in 96-well cell culture plates (Corning, N.Y.) until 75% confluent in DMEM medium containing 10% FCS. The culture media were replaced with fresh medium containing the Ru, Os or Rh-porphyrin analogs at 10 μM (minimal dark cytotoxicity) and the cells were exposed overnight to the compounds. Then, the media were replaced with DMEM without phenol red containing 10% FCS and cells were irradiated at 652 nm using a diode laser (Applied Optronics, South Plainfield, N.J.) coupled to a frontal diffuser (Medlight SA, Ecublens, Switzerland), at an irradiance of 20 mW/cm^2. Experiments were performed in triplicate wells. Cell viability was evaluated 24 h later using the MTT test. Briefly, 3-(4,5-dimethyl-2-thiazoyl)-2,5-diphenyltetrazolium bromide (MTT, Merck) was added at 250 μg/mL and incubation was continued for 2 h, then the cell culture supernatants were removed. The cell layers were dissolved in iPrOH/0.04N HCl and the absorbance measured at 540 nm in a multiwell-plate reader (iEMS Reader MF, Labsystems, Bioconcept, Switzerland) and compared to the values of control cells incubated with the nanoparticles but without laser irradiation.

Compound | fluorescence quantum yield φf [1] | photosensitivity (photosensitizer ranking) (RAW macrophages)
[Ru4(η^6-C6Me6)4(TPP)Cl8] [Compound 4] | 7.3% | 
[Ru4(η^6-1,4-C6H4(COOEt)2)4(TPP)Cl8] [Compound 5] | 7.2% | 
[Ru4(η^6-C6H6)4(TPP)Cl8] [Compound 1] | 6.1% | best photosensitizers amongst the Ru-porphyrin compounds
[Ru4(η^6-p-Pr^iC6H4Me)4(TPP)Cl8] [Compound 3] | 7.9% | 
[Rh4(η^5-Cp*)4(TPP)Cl8] [Compound 7] | 7.9% | 
[OS4(η^6-p-Pr^iC6H4Me)4(TPP)Cl8] [Compound 6] | 7.0% | 
[Ir4(η^5-Cp*)4(TPP)Cl8] [Compound 8] | 4.5% | 
C1=Cc2nc1c(-c1ccncc1)c1ccc([nH]1)c(-c1ccncc1)c1nc(c(-c3ccncc3)c3ccc([nH]3)c2-c2ccncc2)C=C1 [TPP, 5,10,15,20-tetra(4-pyridyl)porphyrin, reference compound] | 10.4% | 
[Ru4(η^6-C6H5CH3)4(TPP)Cl8] [Compound 2] | 7.4% | best photosensitizers amongst the Ru-porphyrin compounds

Reference: patent US20100173885A1, “ORGANOMETEALLIC COMPOUNDS” (priority 2007, published 2010)
